Measurements taken from PubChem BioAssay (NCI).
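Results reflect a 48-hour exposure of cells in 96-well plates to compound at five concentrations. TGI denotes the concentration required for complete inhibition of growth.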

How the values were obtained:
Assay in all cases: growth of human tumour cells (NCI), 48 h
[1] = tested on: DMS 273 small cell lung
[2] = tested on: SF-268 CNS
[3] = tested on: COLO 205 colon
[4] = tested on: A498 renal
[5] = tested on: UACC-62 melanoma
[6] = tested on: UACC-257 melanoma
[7] = tested on: KM20L2 colon
[8] = tested on: LOX IMVI melanoma
[9] = tested on: SR leukemia

| SMILES | TGI [1] [µM] | TGI [2] [µM] | TGI [3] [µM] | TGI [4] [µM] | TGI [5] [µM] | TGI [6] [µM] | TGI [7] [µM] | TGI [8] [µM] | TGI [9] [µM] |
| --- | --- | --- | --- | --- | --- | --- | --- | --- | --- |
| CCCCCCCCCC(=O)OCC1OC(n2cc(F)c(=O)[nH]c2=O)C(N)C(OC(=O)CCCCCCCCC)C1O (stereo not given) | 38 | 40.2 | 31.2 | 31.6 | 32.7 | 39 | 34.8 | 30.1 | 45.3 |
| O=C(O)/C(Cl)=C(\Cl)C(=O)Nc1ccccc1 | > 100 | > 100 | > 100 | > 100 | > 100 | > 100 | > 100 | > 100 | > 100 |
| Nc1nc(N)c(-c2ccc(Cl)cc2)c(CCC(=O)Nc2cccc(C(F)(F)F)c2)n1 | > 100 | > 100 | > 100 | > 100 | > 100 | > 100 | > 100 | > 100 | > 100 |
| COC(=O)C1C(=O)O[C@@H](c2ccc(OC)cc2OC)C1C(=O)OC (stereo not given in full) | > 100 | > 100 | > 100 | > 100 | > 100 | > 100 | > 100 | > 100 | > 100 |
| CCN(CC)c1ccc2c(c1)N=C1N=CC=CN1C2(c1ccc(N(C)C)cc1)c1ccc(N(C)C)cc1 | > 100 | 27.3 | 6.53 | 33.3 | 24.1 | 19.5 | 10.2 | 18.4 | 12.9 |
| Cc1ccc2[nH]c(=O)c(C(C#N)c3ccccc3)nc2c1 (stereo not given) | > 100 | > 100 | 54.8 | > 100 | 75.1 | > 100 | 92.3 | > 100 | > 100 |
| CCOC(=O)C1=C(C)N(NC(=O)c2ccccc2)C2(O)CCCC12C(=O)OCC (stereo not given) | > 100 | > 100 |  | > 100 | > 100 | > 100 | > 100 | > 100 | > 100 |
| CC1C2=CC=C(O2)C(C)(C)C2=CC=C(O2)C(C)(C)C2=CC=C(O2)C(C)(C)C2=CC=C1O2 | > 100 | > 100 | > 100 | > 100 |  | > 100 | > 100 | > 100 | > 100 |
